# Experimental data published in US20180110762A1, “Compositions Methods for Treating Chronic Kidney Disease” (Merck Sharp & Dohme Corp, priority 2015, published 2018).
# Key:
# [1] = ZSF1 rat 28-week in-feed study: body weight, food and water intake; assay type: in vivo; conditions: obese ZSF1 rats
# Method: The effects of Compound A (“A”) on renal function, plasma triglycerides, plasma cholesterol, kidney collagen I, kidney collagen III, renal histology, glomerular filtration rate, fibrosis score, and mRNA gene expression (profibrotic genes and integrin β3) were evaluated in male obese ZSF1 rats (a hybrid F1 of Zucker diabetic fatty rat and spontaneously hypertensive heart failure rat; a diabetic nephropathy model) when administered as in-feed for 28 weeks. Sixty obese male ZSF1 rats were randomized to five groups: Obese control (n=12), Compound A 60 mpk (n=12), Compound A 200 mpk (n=12), Compound A 400 mpk (n=12), Enalapril 10 mpk (n=12); Eight lean male ZSF1 rats were used for normal control. Renal functional changes were monitored by blood and urine analysis following in-feed dosing for 28 weeks. Compound exposure was also monitored during the study.
# [2] = biological target: T1, Human recombinant integrin αvβ1 (Homo sapiens, UniProt P05556+P06756); assay: Solid phase receptor assay, αvβ1 (fibronectin); assay type: binding
# T1 construct: purchased R&D Systems
# Method: The assay was performed according to the method described in International Patent Publication WO 2014/015054 A1 “Beta Amino Acid Derivatives As Integrin Antagonists.” Briefly, 96-well plates were coated overnight with purified fibronectin or vitronectin (R&D Systems) in TBS+ buffer (25 mM Tris 7.4, 137 mM NaCl, 2.7 mM KCl, 1 mM CaCl2, 1 mM MgCl2, 1 mM MnCl2). Compound A was added at different concentrations to recombinant human integrin proteins (R&D Systems) reconstituted in TBS+/0.1% bovine serum albumin, and 50 μL of this mixture were added to the empty wells of the coated plate and incubated for 1-2 hours. After 3 washes, 50 μL of biotinylated antibody (R&D Systems) in TBS+/0.1% bovine serum albumin were added. The procedure continued with three more washes, addition of 50 μL of streptavidin-conjugated horseradish peroxidase (R&D Systems), and incubation for 20 minutes. After 3 more washes, 50 μL of tetramethylbenzidine (TMB) substrate (SIGMA) were added and plates were read after 20 min by colorimetric detection at 650 nm wavelength in an EnVision Multilabel Plate Reader (Perkin Elmer). The concentrations of fibronectin used were: 2 μg/mL for the α5β1 assay and 5 μg/mL for the αvβ1 assay. The concentrations of vitronectin used were: 1 μg/mL for the αvβ3 assay and 0.25 μg/mL for the αvβ5 assay. […]
# T1 sequence (P06756 31-992 limits assumed): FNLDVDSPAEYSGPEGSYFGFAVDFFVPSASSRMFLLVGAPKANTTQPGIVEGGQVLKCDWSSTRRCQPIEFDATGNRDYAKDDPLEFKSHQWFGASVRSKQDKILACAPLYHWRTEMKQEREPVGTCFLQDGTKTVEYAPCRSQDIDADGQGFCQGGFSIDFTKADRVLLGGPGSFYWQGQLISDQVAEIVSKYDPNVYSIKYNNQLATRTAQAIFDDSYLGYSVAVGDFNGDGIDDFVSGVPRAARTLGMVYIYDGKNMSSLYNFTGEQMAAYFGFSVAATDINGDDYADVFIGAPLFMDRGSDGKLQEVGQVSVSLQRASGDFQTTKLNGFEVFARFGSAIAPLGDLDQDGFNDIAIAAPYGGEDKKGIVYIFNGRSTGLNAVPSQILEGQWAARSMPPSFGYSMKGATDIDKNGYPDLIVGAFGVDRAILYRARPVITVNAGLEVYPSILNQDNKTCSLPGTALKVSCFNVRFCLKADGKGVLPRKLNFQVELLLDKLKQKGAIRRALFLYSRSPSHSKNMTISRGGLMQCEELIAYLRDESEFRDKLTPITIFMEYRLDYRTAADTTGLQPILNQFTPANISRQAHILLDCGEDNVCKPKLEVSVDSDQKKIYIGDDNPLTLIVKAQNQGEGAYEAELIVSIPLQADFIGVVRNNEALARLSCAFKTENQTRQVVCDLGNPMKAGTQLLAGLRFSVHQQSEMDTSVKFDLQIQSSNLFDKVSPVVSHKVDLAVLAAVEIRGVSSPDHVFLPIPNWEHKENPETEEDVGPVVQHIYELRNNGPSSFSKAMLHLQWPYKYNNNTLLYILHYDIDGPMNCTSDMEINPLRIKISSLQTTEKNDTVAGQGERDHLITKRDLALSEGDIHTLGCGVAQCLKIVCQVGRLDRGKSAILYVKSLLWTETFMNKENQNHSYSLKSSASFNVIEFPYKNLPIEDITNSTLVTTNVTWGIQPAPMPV
# T1 sequence (P05556 21-728 limits assumed): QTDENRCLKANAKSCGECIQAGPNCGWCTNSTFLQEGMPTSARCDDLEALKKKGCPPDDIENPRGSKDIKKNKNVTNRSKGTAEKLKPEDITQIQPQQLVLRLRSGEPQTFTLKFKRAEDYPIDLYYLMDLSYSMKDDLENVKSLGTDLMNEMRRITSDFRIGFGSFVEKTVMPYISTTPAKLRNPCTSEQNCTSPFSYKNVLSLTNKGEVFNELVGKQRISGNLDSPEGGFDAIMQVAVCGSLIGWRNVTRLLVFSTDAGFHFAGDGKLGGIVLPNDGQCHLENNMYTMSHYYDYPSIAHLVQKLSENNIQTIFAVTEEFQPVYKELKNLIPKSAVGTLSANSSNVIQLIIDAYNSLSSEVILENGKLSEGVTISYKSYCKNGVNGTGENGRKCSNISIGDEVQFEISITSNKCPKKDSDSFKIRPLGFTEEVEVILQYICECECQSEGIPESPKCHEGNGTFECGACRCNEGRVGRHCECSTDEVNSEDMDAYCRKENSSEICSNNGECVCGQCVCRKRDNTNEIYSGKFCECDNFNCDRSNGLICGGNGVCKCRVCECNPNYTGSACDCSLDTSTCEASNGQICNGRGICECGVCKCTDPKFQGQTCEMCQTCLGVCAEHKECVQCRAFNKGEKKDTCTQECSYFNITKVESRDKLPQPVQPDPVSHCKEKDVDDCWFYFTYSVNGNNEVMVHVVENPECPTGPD
compound,measurement,setting,value
"COc1ccc([C@H](CC(=O)O)N2CCN(CCCc3ccc4c(n3)NCCC4)C2=O)cn1 [Compound A, 3-{2-Oxo-3-[3-(5,6,7,8-tetrahydro-[1,8]naphthyridin-2-yl)-propyl]imidazolidin-1-yl}-3 (S)-(6-methoxy-pyridin-3-yl)-propionic acid]",Body Weight,"[1]; 60 mpk in-feed, week 1",566.6 ± 7.3 grams
same,Food Intake,"[1]; 60 mpk in-feed, week 1",30.5 ± 1.2 grams/24 h
same,Water Intake,"[1]; 60 mpk in-feed, week 1",34.6 ± 3.4 mls/24 h
same,Body Weight,"[1]; 60 mpk in-feed, week 2",577.4 ± 7.2 grams
same,Food Intake,"[1]; 60 mpk in-feed, week 2",26.9 ± 1.0 grams/24 h
same,Water Intake,"[1]; 60 mpk in-feed, week 2",34.5 ± 2.2 mls/24 h
same,Body Weight,"[1]; 60 mpk in-feed, week 4",599.8 ± 7.4 grams
same,Food Intake,"[1]; 60 mpk in-feed, week 4",29.5 ± 2.1 grams/24 h
same,Water Intake,"[1]; 60 mpk in-feed, week 4",46.0 ± 5.7 mls/24 h
same,Body Weight,"[1]; 60 mpk in-feed, week 6",624.7 ± 9.0 grams
same,Food Intake,"[1]; 60 mpk in-feed, week 6",32.8 ± 0.9 grams/24 h
same,Water Intake,"[1]; 60 mpk in-feed, week 6",45.8 ± 4.5 mls/24 h
same,Body Weight,"[1]; 60 mpk in-feed, week 8",652.0 ± 9.4 grams
same,Food Intake,"[1]; 60 mpk in-feed, week 8",34.1 ± 1.1 grams/24 h
same,Water Intake,"[1]; 60 mpk in-feed, week 8",59.2 ± 4.5 mls/24 h
same,Body Weight,"[1]; 60 mpk in-feed, week 10",678.0 ± 10.9 grams
same,Body Weight,"[1]; 60 mpk in-feed, week 12",703.7 ± 11.9 grams
same,Food Intake,"[1]; 60 mpk in-feed, week 12",36.7 ± 1.6 grams/24 h
same,Water Intake,"[1]; 60 mpk in-feed, week 12",71.5 ± 4.9 mls/24 h
same,Body Weight,"[1]; 60 mpk in-feed, week 14",712.1 ± 12.7 grams
same,Body Weight,"[1]; 60 mpk in-feed, week 16",733.8 ± 13.2 grams
same,Food Intake,"[1]; 60 mpk in-feed, week 16",33.2 ± 1.3 grams/24 h
same,Water Intake,"[1]; 60 mpk in-feed, week 16",63.7 ± 4.9 mls/24 h
same,Body Weight,"[1]; 60 mpk in-feed, week 18",746.9 ± 14.1 grams
same,Body Weight,"[1]; 60 mpk in-feed, week 21",781.1 ± 14.1 grams
same,Food Intake,"[1]; 60 mpk in-feed, week 21",34.6 ± 1.6 grams/24 h
same,Water Intake,"[1]; 60 mpk in-feed, week 21",64.5 ± 8.5 mls/24 h
same,Body Weight,"[1]; 60 mpk in-feed, week 24",808.9 ± 14.6 grams
same,Food Intake,"[1]; 60 mpk in-feed, week 24",31.2 ± 1.0 grams/24 h
same,Water Intake,"[1]; 60 mpk in-feed, week 24",59.4 ± 4.7 mls/24 h
same,Body Weight,"[1]; 60 mpk in-feed, week 28",839.0 ± 14.9 grams
same,Food Intake,"[1]; 60 mpk in-feed, week 28",31.6 ± 1.0 grams/24 h
same,Water Intake,"[1]; 60 mpk in-feed, week 28",66.5 ± 6.6 mls/24 h
same,Body Weight,"[1]; 60 mpk in-feed, week −2",521.3 ± 6.9 grams
same,Food Intake,"[1]; 60 mpk in-feed, week −2",38.6 ± 1.0 grams/24 h
same,Water Intake,"[1]; 60 mpk in-feed, week −2",60.8 ± 4.5 mls/24 h
same,Body Weight,"[1]; 200 mpk in-feed, week 1",568.6 ± 7.4 grams
same,Food Intake,"[1]; 200 mpk in-feed, week 1",29.0 ± 1.0 grams/24 h
same,Water Intake,"[1]; 200 mpk in-feed, week 1",30.7 ± 1.9 mls/24 h
same,Body Weight,"[1]; 200 mpk in-feed, week 2",581.5 ± 7.0 grams
same,Food Intake,"[1]; 200 mpk in-feed, week 2",29.2 ± 1.1 grams/24 h
same,Water Intake,"[1]; 200 mpk in-feed, week 2",29.2 ± 2.5 mls/24 h
same,Body Weight,"[1]; 200 mpk in-feed, week 4",605.9 ± 7.1 grams
same,Food Intake,"[1]; 200 mpk in-feed, week 4",30.6 ± 1.0 grams/24 h
same,Water Intake,"[1]; 200 mpk in-feed, week 4",33.4 ± 2.0 mls/24 h
same,Body Weight,"[1]; 200 mpk in-feed, week 6",631.8 ± 7.7 grams
same,Food Intake,"[1]; 200 mpk in-feed, week 6",34.3 ± 1.6 grams/24 h
same,Water Intake,"[1]; 200 mpk in-feed, week 6",39.4 ± 2.8 mls/24 h
same,Body Weight,"[1]; 200 mpk in-feed, week 8",663.0 ± 7.4 grams
same,Food Intake,"[1]; 200 mpk in-feed, week 8",31.8 ± 1.2 grams/24 h
same,Water Intake,"[1]; 200 mpk in-feed, week 8",51.4 ± 4.6 mls/24 h
same,Body Weight,"[1]; 200 mpk in-feed, week 10",690.6 ± 8.5 grams
same,Body Weight,"[1]; 200 mpk in-feed, week 12",718.9 ± 9.3 grams
same,Food Intake,"[1]; 200 mpk in-feed, week 12",35.6 ± 0.9 grams/24 h
same,Water Intake,"[1]; 200 mpk in-feed, week 12",63.9 ± 4.8 mls/24 h
same,Body Weight,"[1]; 200 mpk in-feed, week 14",729.3 ± 11.9 grams
same,Body Weight,"[1]; 200 mpk in-feed, week 16",754.1 ± 11.9 grams
same,Food Intake,"[1]; 200 mpk in-feed, week 16",33.6 ± 1.5 grams/24 h
same,Water Intake,"[1]; 200 mpk in-feed, week 16",57.3 ± 5.0 mls/24 h
same,Body Weight,"[1]; 200 mpk in-feed, week 18",772.3 ± 13.1 grams
same,Body Weight,"[1]; 200 mpk in-feed, week 21",800.2 ± 13.9 grams
same,Food Intake,"[1]; 200 mpk in-feed, week 21",35.6 ± 0.9 grams/24 h
same,Water Intake,"[1]; 200 mpk in-feed, week 21",58.1 ± 3.6 mls/24 h
same,Body Weight,"[1]; 200 mpk in-feed, week 24",825.7 ± 14.7 grams
same,Food Intake,"[1]; 200 mpk in-feed, week 24",31.7 ± 1.2 grams/24 h
same,Water Intake,"[1]; 200 mpk in-feed, week 24",61.8 ± 3.5 mls/24 h
same,Body Weight,"[1]; 200 mpk in-feed, week 28",848.1 ± 16.4 grams
same,Food Intake,"[1]; 200 mpk in-feed, week 28",33.3 ± 1.2 grams/24 h
same,Water Intake,"[1]; 200 mpk in-feed, week 28",70.5 ± 5.6 mls/24 h
same,Body Weight,"[1]; 200 mpk in-feed, week −2",520.6 ± 6.4 grams
same,Food Intake,"[1]; 200 mpk in-feed, week −2",37.7 ± 1.4 grams/24 h
same,Water Intake,"[1]; 200 mpk in-feed, week −2",59.1 ± 5.9 mls/24 h
same,Body Weight,"[1]; 400 mpk in-feed, week 1",568.3 ± 6.5 grams
same,Food Intake,"[1]; 400 mpk in-feed, week 1",30.0 ± 1.6 grams/24 h
same,Water Intake,"[1]; 400 mpk in-feed, week 1",37.6 ± 2.8 mls/24 h
same,Body Weight,"[1]; 400 mpk in-feed, week 2",582.8 ± 6.5 grams
same,Food Intake,"[1]; 400 mpk in-feed, week 2",32.0 ± 1.2 grams/24 h
same,Water Intake,"[1]; 400 mpk in-feed, week 2",40.3 ± 3.1 mls/24 h
same,Body Weight,"[1]; 400 mpk in-feed, week 4",604.1 ± 7.2 grams
same,Food Intake,"[1]; 400 mpk in-feed, week 4",33.6 ± 0.9 grams/24 h
same,Water Intake,"[1]; 400 mpk in-feed, week 4",45.0 ± 3.7 mls/24 h
same,Body Weight,"[1]; 400 mpk in-feed, week 6",631.8 ± 8.9 grams
same,Food Intake,"[1]; 400 mpk in-feed, week 6",34.6 ± 1.2 grams/24 h
same,Water Intake,"[1]; 400 mpk in-feed, week 6",49.9 ± 4.8 mls/24 h
same,Body Weight,"[1]; 400 mpk in-feed, week 8",654.5 ± 10.6 grams
same,Food Intake,"[1]; 400 mpk in-feed, week 8",34.2 ± 1.4 grams/24 h
same,Water Intake,"[1]; 400 mpk in-feed, week 8",62.2 ± 5.6 mls/24 h
same,Body Weight,"[1]; 400 mpk in-feed, week 10",676.5 ± 12.7 grams
same,Body Weight,"[1]; 400 mpk in-feed, week 12",704.8 ± 12.8 grams
same,Food Intake,"[1]; 400 mpk in-feed, week 12",35.7 ± 0.7 grams/24 h
same,Water Intake,"[1]; 400 mpk in-feed, week 12",63.5 ± 5.3 mls/24 h
same,Body Weight,"[1]; 400 mpk in-feed, week 14",704.4 ± 14.6 grams
same,Body Weight,"[1]; 400 mpk in-feed, week 16",739.3 ± 15.0 grams
same,Food Intake,"[1]; 400 mpk in-feed, week 16",33.6 ± 0.7 grams/24 h
same,Water Intake,"[1]; 400 mpk in-feed, week 16",63.0 ± 3.9 mls/24 h
same,Body Weight,"[1]; 400 mpk in-feed, week 18",757.9 ± 16.9 grams
same,Body Weight,"[1]; 400 mpk in-feed, week 21",791.2 ± 18.4 grams
same,Food Intake,"[1]; 400 mpk in-feed, week 21",36.0 ± 1.2 grams/24 h
same,Water Intake,"[1]; 400 mpk in-feed, week 21",59.3 ± 4.4 mls/24 h
same,Body Weight,"[1]; 400 mpk in-feed, week 24",823.8 ± 18.9 grams
same,Food Intake,"[1]; 400 mpk in-feed, week 24",33.3 ± 1.5 grams/24 h
same,Water Intake,"[1]; 400 mpk in-feed, week 24",67.2 ± 4.8 mls/24 h
same,Body Weight,"[1]; 400 mpk in-feed, week 28",852.1 ± 19.5 grams
same,Food Intake,"[1]; 400 mpk in-feed, week 28",32.1 ± 1.7 grams/24 h
same,Water Intake,"[1]; 400 mpk in-feed, week 28",80.1 ± 4.6 mls/24 h
same,Body Weight,"[1]; 400 mpk in-feed, week −2",522.3 ± 7.1 grams
same,Food Intake,"[1]; 400 mpk in-feed, week −2",37.7 ± 1.1 grams/24 h
same,Water Intake,"[1]; 400 mpk in-feed, week −2",57.2 ± 4.9 mls/24 h
same,effect on body weight (BW),[1]; in-feed for 28 weeks,no significant effect
same,effect on food intake (FI),[1]; in-feed for 28 weeks,no significant effect
same,effect on water intake (WI),[1]; in-feed for 28 weeks,no significant effect
same,IC50,"[2]; αvβ1, first of two experiments",2.1 nM
same,IC50,"[2]; αvβ1, second of two experiments",0.9 nM
